The values that follow come from patent US5120720A, “Preparation of lipophile:hydroxypropylcyclodextrin complexes by a method using co-solubilizers” (priority 1990, dated 1992).

Where two headings read alike, the source gives them in different places.

The conditions of data set [1]: read-out: Stability constant of the complex with α-cyclodextrin, cited from earlier work.
The conditions of data set [2]: read-out: Stability constant of the complex with β-cyclodextrin, cited from earlier work.
The conditions of data set [3]: β-cyclodextrin, aqueous sodium hydroxide then phosphoric acid (U.S. Pat. No. 4,883,785, Example 3); cited from earlier work.
The format of data set [4] is physicochemical. An excerpt:
The methods of preparation herein disclosed were also used successfully with the ethanol-soluble peptides such as gramicidin S, complexed with hydroxypropyl-β-cyclodextrin (Example 4). It was also used to prepare the gramicidin S:hydroxypropyl-α-cyclodextrin preparation (Example 5) and gramicidin S:hydroxypropyl-γ-cyclodextrin preparation (Example 6).
The processes disclosed herein differ substantially from those described by Szejtli (p. 268) for the preparation of crystalline β-cyclodextrin:vitamin D3 complexes, which were prepared using organic solvents. In this regard, the procedure described by Szejtli consists of the co-dissolution of components, i.e., of crystalline β-cyclodextrin and vitamin D3, at 50° C. in 60-65% aqueous ethanol, followed by cooling of the clear solution during which crystalline complex of the vitamin precipitates. Moreover, attempts to use Szejtli's procedure for the above complexes were not successful, since concentration of ethanol in the range 60-65% solubilized steroids only incompletely and no precipitation occurred.

Data set [5] can be described thus: Solubility of freeze-dried complexes or residues in water, and stability of the solutions. Format: physicochemical. The settings on record: attempted complex preparation. On the procedure: For a number of applications, complexes in powdery form as prepared by freeze-drying (lyophilizing), are preferable to the glassy residues such as are obtained by the above discussed procedure. Therefore, to obtain complexes in a powdery form, the glassy preparations were dissolved in water (final concentration of hydroxypropyl-β-cyclodextrin was about 10% W/W), sterilized by ultrafiltration and freeze-dried. All of the following exemplary preparations of steroids so prepared, dissolved fully. Moreover, the complexes so obtained were again amorphous and could be tabletted by direct compression.
The solubility of freeze-dried complexes such as those provided below was invariably high. For example, all the complexes of steroids in Examples 1-3 dissolved smoothly in water up to 40% W/W concentration, and these solutions were stable for at least 24 hours.
[…] Full dissolution occurred in five minutes; the solution was then filtered through a membrane filter (pore size 0.22 μm). The filtrate was evaporated at room temperature in vacuo to dryness leaving a glassy residue. […] The yield was 85%.

[6] abbreviates: source (a) M. Suzuki et al. 1988.
Where [7] appears, read: source (b) Y. Matsui and K. Mochida 1979.
Where [8] appears, read: source (d) W. Hirsch et al. 1987.

Take `CC(C)(C)CO` [2,2-dimethyl-1-propanol]: the Kd is 33.3 mM in data set [1] (setting [6]), 1.52 mM in data set [2] (setting [6]) and 1.72 mM in data set [2] (setting [7]).
With `N` [ammonia], the Kd is 0.0164 mM in data set [1] (setting [8]) and 0.0667 mM in data set [2] (setting [8]).
Consider `C[C@@H]1[C@H](O)[C@@H](C)/C=C/C=C/C=C/C=C/C=C/C=C/C=C/[C@H](O[C@@H]2O[C@H](C)[C@@H](O)[C@H](N)[C@@H]2O)C[C@@H]2O[C@](O)(C[C@@H](O)C[C@@H](O)[C@H](O)CC[C@@H](O)C[C@@H](O)CC(=O)O[C@H]1C)C[C@H](O)[C@H]2C(=O)O` [amphotericin B], for which the Starting drug solubilized result in data set [3] is reported as “about 1%”.
For `CCCCO` [n-butanol], the Kd in data set [1] (setting [6]) is 9.09 mM; in data set [1] (setting [7]), 11.2 mM.
On to `CCCCCO` [n-pentanol], for which the Kd in data set [1] (setting [6]) was 3.33 mM; in data set [1] (setting [7]) it was 3.1 mM; in data set [2] (setting [6]) it was 11.5 mM; in data set [2] (setting [7]) it was 15.9 mM.
Consider `CCCO` [n-propanol], for which the Kd was 50 mM in data set [1] (setting [6]) and 43.5 mM in data set [1] (setting [7]).
For the molecule `CC(C)(C)O` [t-butanol], the Kd was 23.8 mM in data set [2] (setting [6]) and 20.8 mM in data set [2] (setting [7]).
On to `OC[C@H]1O[C@@H]2O[C@H]3[C@H](O)[C@@H](O)[C@@H](O[C@H]4[C@H](O)[C@@H](O)[C@@H](O[C@H]5[C@H](O)[C@@H](O)[C@@H](O[C@H]6[C@H](O)[C@@H](O)[C@@H](O[C@H]7[C@H](O)[C@@H](O)[C@@H](O[C@H]8[C@H](O)[C@@H](O)[C@@H](O[C@H]1[C@H](O)[C@H]2O)O[C@@H]8CO)O[C@@H]7CO)O[C@@H]6CO)O[C@@H]5CO)O[C@@H]4CO)O[C@@H]3CO` [β-cyclodextrin], for which, in data set [4], the “Solubility in 75% ethanol” value is recorded as “low solubility”.
In the case of gramicidin D, in data set [5], the “Solubility in water of solid residue after evaporation of ethanol 95% solution” value is recorded as “insoluble in water”. Also, the “Dissolution in ethanol 75%” value in data set [4] (ethanol 75%) is reported as “did not dissolve”. The “Dissolution in ethanol 95%” value in data set [4] (ethanol 95%) is recorded as “dissolved”.
